These results are taken from patent publication US20150183743A1, “COMPOUND AND USE OF COMPOUND TO PREPARE A RADIOLABELLED COMPOUND” (STICHTING VU-VUMC, priority 2012, published 2015).

Each structure is given as a SMILES string. Counter-ions that a name gives are not always drawn.

The target in data set [1] is T1, ifenprodil binding site of NR2B subunit containing NMDA receptors (Rattus norvegicus, UniProt P35439+Q00960).
T1 construct: 400 μl of the membrane suspension, containing a total amount of 2.5 mg original wet weight of tissue; from tissue; host or cells: rat forebrain membranes
Kind of data set: Competition binding assay against [3H]ifenprodil on rat forebrain membranes. To be noted: displacement of 5 nM [3H]ifenprodil; mean±SEM of 2-6 determinations in triplicate. As for the experimental part: Male Wistar rats (180-200 g) were killed by decapitation. The forebrains were rapidly removed and homogenized using a DUALL tissue homogenizer (10 strokes, 2000 rpm), in a 10-fold excess (v/w) of ice-cold 0.25 M sucrose. The nuclei and cell debris were removed by centrifugation (10 min×400×g), in a Beckman refrigerated ultracentrifuge (rotor 60Ti). The resulting pellet was rehomogenized in 5 vol 0.25 sucrose and recentrifuged. The combined supernatants were diluted in Tris-acetate buffer (50 mM, pH 7.4) to a final dilution of 40 v/w, and centrifuged for 30 min×200,000×g, in order to obtain membranes from the cell surface, mitochondrial, and microsomal fractions. The pellet was resuspended in 20 volumes of Tris-HCl+0.01% Triton buffer (pH 7.4), kept at 37° C. for 10 min, and recentrifuged. The final pellet was suspended in Tris-HCl buffer (dilution 5, pH 7.4), and stored at −80° C. in 5 ml aliquots. On the day of each experiment, membranes were thawed to room temperature and washed twice by centrifugation (30 min×200,000×g). After the final centrifugation, pellets were suspended in 80 volumes (v/w) of 50 mM Tris-HCl buffer (pH 7.4).
Competition binding experiments were carried out on ice, in a final volume of 500 μl assay buffer (50 mM Tris-HCl, pH 7.4), containing 5 μM GBR 12909 to block […] binding. The incubation mixture was composed of 400 μl of the membrane suspension, containing a total amount of 2.5 mg original wet weight of tissue, 50 μl of [^3H]ifenprodil, and 5 μl of unlabelled drug solution (final DMSO concentration: 1%). Nonspecific binding was determined in the presence of 10 μM Ro 25-6981. Incubations were terminated after 2 hr by filtration through 0.3% PEI-embedded Whatman GF/B filters, using a 48-well Brandel harvester. The filters were washed three times with 3 ml of ice cold Tris-HCl buffer (pH 7.4), and radioactivity was determined by liquid scintillation spectrometry in 5 ml of Optiphase-HiSafe 3, at an efficiency of 40%.
Ki values were determined by nonlinear regression analysis using the equation: log EC50=log [10̂log Ki*(1+RadioligandNM/HotKdNM)], (GraphPad Software Inc., San Diego, Calif.).

The nature of data set [2]: Biodistribution of [11C]HC-242 in anaesthetized mice. The class given is in vivo, B6C3F1/J mice. As for the experimental part:
Animals were anaesthetized with a 1:2:1 mixture of ffm [fentanyl/fluanisone (Hypnorm™; Vetapharma, Leeds, UK), sterile water, midazolam (Dormicum™; Actavis, Harnarfjordur, Iceland)]. The anaesthetic was administered intraperitoneally (11 ml/kg), 5 min prior to radiotracer administration. […] Following the injections, mice were killed by cervical dislocation at 5, 15, 30, or 60 min (n=4/time point). At each time point, blood was obtained by heart punctures and selected organs, including the heart, liver, kidneys, lungs and brain were removed. The brain was further dissected into frontal cortex, olfactory tubercle, striatum, cerebral cortex (bregma 1.70-0.02 mm), entorhinal cortex, hippocampus, hypothalamus, cerebellum, and pons/medulla oblongata. All organs and brain areas were weighed, and recovered radioactivity was determined in a 1282 Compugamma CS (LKB Wallac, Turku, Finland), using 5×10 μl aliquots of the injected formulation as standard. Results are expressed as the differential absorption ratio (DAR): (cpm recovered/g tissue)/(cpm injected/g body weight). Two-way repeated measures ANOVA, followed by Fisher's LSD post-hoc comparisons, was used for analysis of radiotracer uptake in different brain regions (or organs), at different time points.

The target in data set [3] is T2, NR2B site of NMDA receptors (Mus musculus, UniProt P35438+Q01097).
T2 construct: from tissue; host or cells: mouse brain (sections in vitro; whole brain in vivo)
Kind of data set: In vitro autoradiography of [11C]HC-242 on mouse brain sections (non-specific: 1 μM Ro25-6981). It counts as binding, B6C3F1/J mice. On the procedure:
20 μm thick coronal brain sections were thawed from −20° C. to room temperature, pre-washed 2×10 min in assay buffer (50 mM Tris-HCl, pH 7.4), and dried. […] To determine non-specific binding, a series of immediately adjacent brain sections was incubated in the same buffer, in the presence of 1 μM Ro25-6981. Incubations were terminated by 1 min washing into ice-cold assay buffer (pH 7.4), followed by a rapid rinse in ice-cold demi water. The sections were then air dried and opposed overnight to Kodak BioMax MR-1 film, which was developed in Kodak D19 developer and fixed with Kodak rapid fixer (Sigma-Aldrich, Zwijndrecht, the Netherlands). […] Specific binding was quantified following the subtraction of […] binding images.

In data set [4] the target is T2, NR2B site of NMDA receptors. Kind of data set: Blocking of [11C]HC-242 brain uptake by Ro25-6981 in anaesthetized mice (ex vivo autoradiography). Set-up: species or system B6C3F1/J mice. To be noted: for mean % change: blocked (Ro25-6981) vs unblocked. On the procedure: 15 min after radiotracer injection, mice were killed by cervical dislocation, and the brains were removed, frozen in liquid nitrogen and processed for quantitative autoradiography. 20 μm coronal brain sections from control and Ro25-6981 treated mice were obtained at −21° C. in a Leica CM3050S cryostat (Leica Microsystems, Rijswijk, the Netherlands), and were immediately opposed to phosphor storage screens. The screens were read in a Storm™ 860 Phosphorimager on the following day, and the images obtained were analyzed using ImageQuant TL 8.1 software (GE Healthcare Europe GmbH, Diegem, Belgium). A series of immediately adjacent brain sections were opposed to Kodak Biomax MR-1 film, which was developed after overnight exposure, to obtain high resolution images. […] Analysis of radiotracer uptake in control and blocked mice across different brain regions was performed using two-way ANOVA.

Data set [5] is described as follows: Determination of Log Doct,7.4. It counts as physicochemical. Conditions: 1-octanol / 0.2M phosphate buffer pH 7.4, room temperature, triplicate. On the procedure:
The distribution of the radio labelled compounds between 1-octanol and 0.2M phosphate buffer (pH=7.4) was measured in triplicate at room temperature. Briefly, 1 mL of a 20 MBq/mL solution of the radio labelled compound in 0.2M phosphate buffer (pH=7.4) was vigorously mixed with 1 mL of 1-octanol for 1 min at room temperature using a vortex. After a settling period of 30 min, five samples of 100 μL were taken from both layers. For determining recovery, 5 samples of 100 μL were taken from the 20 MBq/mL solution. All samples were counted for radioactivity. The Log Doct,7.4 value was calculated according to Log Doct,7.4=^10Log(Aoct/Abuffer), where Aoct and Abuffer represent the average radioactivity counted of the 5 1-octanol and 5 buffer samples, respectively.

T1 sequence (Q00960 27-1482, other chains not shown): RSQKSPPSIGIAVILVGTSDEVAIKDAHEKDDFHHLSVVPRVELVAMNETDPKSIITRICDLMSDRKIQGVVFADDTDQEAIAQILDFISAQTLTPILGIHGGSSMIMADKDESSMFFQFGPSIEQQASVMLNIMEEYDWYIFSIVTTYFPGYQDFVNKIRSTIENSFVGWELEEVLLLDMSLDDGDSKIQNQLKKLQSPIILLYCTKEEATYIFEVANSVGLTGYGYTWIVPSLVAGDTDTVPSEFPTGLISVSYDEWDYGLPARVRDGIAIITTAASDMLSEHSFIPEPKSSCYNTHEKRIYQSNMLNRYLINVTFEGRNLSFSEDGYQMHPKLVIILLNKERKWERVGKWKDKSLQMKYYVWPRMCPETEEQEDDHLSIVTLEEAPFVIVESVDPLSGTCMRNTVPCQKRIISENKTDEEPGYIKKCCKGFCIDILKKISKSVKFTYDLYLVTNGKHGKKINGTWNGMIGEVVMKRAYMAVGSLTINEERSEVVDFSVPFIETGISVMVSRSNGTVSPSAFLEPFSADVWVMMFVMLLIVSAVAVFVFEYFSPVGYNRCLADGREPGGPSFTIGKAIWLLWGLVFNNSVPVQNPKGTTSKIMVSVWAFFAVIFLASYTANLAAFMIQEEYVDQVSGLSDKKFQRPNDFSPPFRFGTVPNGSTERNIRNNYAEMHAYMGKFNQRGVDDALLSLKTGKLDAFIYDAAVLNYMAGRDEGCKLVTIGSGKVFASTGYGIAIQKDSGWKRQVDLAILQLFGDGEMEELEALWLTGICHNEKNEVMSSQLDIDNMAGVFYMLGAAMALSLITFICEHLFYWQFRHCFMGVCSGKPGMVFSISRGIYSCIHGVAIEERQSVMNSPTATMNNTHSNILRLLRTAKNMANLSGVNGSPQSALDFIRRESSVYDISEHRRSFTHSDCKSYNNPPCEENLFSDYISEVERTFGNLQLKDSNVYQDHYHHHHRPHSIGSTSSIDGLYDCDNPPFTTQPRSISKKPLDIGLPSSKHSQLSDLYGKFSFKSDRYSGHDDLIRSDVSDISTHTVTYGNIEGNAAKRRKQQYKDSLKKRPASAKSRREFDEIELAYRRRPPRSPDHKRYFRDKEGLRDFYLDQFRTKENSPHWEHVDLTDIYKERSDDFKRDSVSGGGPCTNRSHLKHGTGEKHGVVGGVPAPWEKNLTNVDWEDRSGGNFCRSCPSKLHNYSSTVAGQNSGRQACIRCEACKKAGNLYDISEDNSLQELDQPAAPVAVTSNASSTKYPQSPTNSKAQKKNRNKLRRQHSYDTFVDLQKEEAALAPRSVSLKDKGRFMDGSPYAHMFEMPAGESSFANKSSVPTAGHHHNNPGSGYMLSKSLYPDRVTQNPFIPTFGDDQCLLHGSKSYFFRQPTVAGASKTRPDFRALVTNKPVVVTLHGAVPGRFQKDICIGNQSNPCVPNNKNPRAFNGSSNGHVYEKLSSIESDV
T2 sequence (Q01097 27-1482, other chains not shown): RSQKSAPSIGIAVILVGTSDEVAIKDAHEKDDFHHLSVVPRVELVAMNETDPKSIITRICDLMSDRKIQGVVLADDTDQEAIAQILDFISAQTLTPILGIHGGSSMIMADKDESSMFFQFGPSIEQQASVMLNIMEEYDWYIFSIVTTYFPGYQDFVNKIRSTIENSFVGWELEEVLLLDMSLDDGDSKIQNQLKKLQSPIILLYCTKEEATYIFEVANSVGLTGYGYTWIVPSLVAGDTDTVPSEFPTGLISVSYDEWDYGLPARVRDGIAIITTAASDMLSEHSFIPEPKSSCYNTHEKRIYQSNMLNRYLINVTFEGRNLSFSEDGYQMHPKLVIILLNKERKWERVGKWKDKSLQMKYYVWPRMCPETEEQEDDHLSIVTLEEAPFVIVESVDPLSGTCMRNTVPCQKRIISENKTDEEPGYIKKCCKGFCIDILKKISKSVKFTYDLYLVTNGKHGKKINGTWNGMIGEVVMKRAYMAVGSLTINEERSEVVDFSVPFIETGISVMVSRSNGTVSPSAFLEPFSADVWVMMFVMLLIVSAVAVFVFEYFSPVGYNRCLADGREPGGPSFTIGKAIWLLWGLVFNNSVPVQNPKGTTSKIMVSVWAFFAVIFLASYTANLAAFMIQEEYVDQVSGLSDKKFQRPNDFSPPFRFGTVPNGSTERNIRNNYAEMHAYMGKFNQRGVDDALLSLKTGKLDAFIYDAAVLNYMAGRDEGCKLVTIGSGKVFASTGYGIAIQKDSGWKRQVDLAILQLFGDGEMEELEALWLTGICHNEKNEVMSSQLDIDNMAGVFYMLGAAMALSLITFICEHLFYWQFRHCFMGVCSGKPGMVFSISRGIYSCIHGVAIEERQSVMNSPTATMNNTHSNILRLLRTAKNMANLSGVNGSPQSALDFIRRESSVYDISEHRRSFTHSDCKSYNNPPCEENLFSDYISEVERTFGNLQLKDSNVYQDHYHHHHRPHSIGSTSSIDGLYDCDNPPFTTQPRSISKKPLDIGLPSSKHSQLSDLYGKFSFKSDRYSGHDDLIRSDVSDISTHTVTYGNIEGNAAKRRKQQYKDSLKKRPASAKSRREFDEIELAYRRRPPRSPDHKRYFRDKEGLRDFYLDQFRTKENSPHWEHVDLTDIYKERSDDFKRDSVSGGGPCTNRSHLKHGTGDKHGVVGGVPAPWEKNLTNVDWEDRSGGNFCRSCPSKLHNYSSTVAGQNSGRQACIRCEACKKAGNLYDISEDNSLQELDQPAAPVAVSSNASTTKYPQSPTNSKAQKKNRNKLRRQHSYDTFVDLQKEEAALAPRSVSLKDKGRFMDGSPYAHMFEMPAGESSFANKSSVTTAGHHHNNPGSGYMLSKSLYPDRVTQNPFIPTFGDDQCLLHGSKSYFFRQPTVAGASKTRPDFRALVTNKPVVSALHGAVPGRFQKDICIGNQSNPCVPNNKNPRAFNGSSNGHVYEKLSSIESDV

For orientation: Ki means the dissociation constant of the complex between target and ligand, obtained from inhibition or displacement. Low readings indicate higher affinity, high ones lower affinity. `COc1cc(F)ccc1-c1cncc(CNCC2CC2)c1` [Example 2, 1-cyclopropyl-N-((5-(4-fluoro-2-methoxyphenyl)pyridin-3-yl)methyl)methanamine dihydrochloride] had a Ki in data set [1] of 8.7 ± 1.2 nM.
With `COc1cc(F)ccc1-c1cccc(CNCC2CC2)c1` [Example 4, 1-cyclopropyl-N-((4′-fluoro-2′-methoxy-[1,1′-biphenyl]-3-yl)methyl)methanamine hydrochloride], in data set [1], affinity was put at a Ki of 67.7 ± 8.1 nM.
In the case of `Oc1cc(F)ccc1-c1cncc(CNC2CCCC2)c1` [Example 5, 2-(5-((cyclopentylamino)methyl)pyridin-3-yl)-5-fluorophenol], in data set [1], the Ki came out at 1300 ± 600 nM.
For the molecule `FCOc1cc(F)ccc1-c1cncc(CNC2CCCC2)c1` [Example 6, N-((5-(4-fluoro-2-(fluoromethoxy)phenyl)pyridin-3-yl)methyl)cyclopentanamine dihydrochloride], the Ki in data set [1] was found to be 15.4 ± 1.3 nM.
Same read-out and setting: next, `FCCOc1cc(F)ccc1-c1cncc(CNC2CCCC2)c1` [Example 7, N-((5-(4-fluoro-2-(2-fluoroethoxyl)phenyl)pyridin-3-yl)methyl)cyclopentanamine dihydrochloride]: 156 ± 21.8 nM; `Fc1ccc(-c2cncc(CNC3CCCC3)c2)cc1` [Example 10, N-((5-(4-fluorophenyl)pyridin-3-yl)methyl)cyclopentanamine dihydrochloride]: 3.3 ± 1.9 nM.
In turn, `Fc1ccc(-c2cccc(CNC3CCCC3)c2)cc1` [Example 11, N-((4′-fluoro-[1,1′-biphenyl]-3-yl)methyl)cyclopentanamine hydrochloride] displayed a Ki in data set [1] of 13.1 ± 1.8 nM.
Turning to `Fc1ccc(-c2cncc(CNCC3CC3)c2)cc1` [Example 12, 1-cyclopropyl-N-((5-(4-fluorophenyl)pyridin-3-yl)methyl)methanamine dihydrochloride], in data set [1], the Ki was determined as 2.9 ± 0.3 nM.
As a reminder, the logD is lipophilicity at a set pH, counting ionised and neutral species. A higher logD goes with a more lipophilic compound. As for `[11CH3]Oc1cc(F)ccc1-c1cncc(CNC2CCCC2)c1` [[^11C]HC-242, N-((5-(4-fluoro-2-^11C-methoxyphenyl)pyridin-3-yl)methyl)cyclopentanamine], the DAR came to 0.04±0.01 in data set [2] (blood, 5 min); 0.14±0.01 in data set [2] (cerebellum, 15 min); 0.25±0.03 in data set [2] (cerebral cortex, 15 min); 0.62±0.22 in data set [2] (entorhinal cortex, 15 min); 0.26±0.02 in data set [2] (frontal cortex, 15 min); 0.19±0.04 in data set [2] (heart, 5 min). Moreover, the DAR is on record as 0.33±0.03 in data set [2] (hippocampus, 15 min); 0.15±0.05 in data set [2] (liver, 5 min); 0.14±0.02 in data set [2] (pons/medulla oblongata, 15 min); 0.24±0.03 in data set [2] (striatum, 15 min). Besides, the “mean percentage of specific binding” value in data set [3] (across all brain regions analyzed) is 24.0±3.5%. Besides, the Specific labelling entry was “high” in data set [3] (cerebral cortex, hippocampus, olfactory tubercle, striatum); “absent” in data set [3] (subthalamic brain regions); “low” in data set [3] (thalamus). Moreover, the “percentage of specific binding” value is recorded as 39.6±10.4% in data set [3] (olfactory tubercle) and 3.3±2.1% in data set [3] (thalamus). For the same molecule, the mean % change in data set [4] (Experiment No 1, [11C]HC-242 23.7 μM at t0) was −22.5%; in data set [4] (Experiment No 2, [11C]HC-242 2.6 μM at t0), −21.9%; in data set [4] (Experiment No 3, [11C]HC-242 14.6 μM at t0), 33.3%. Further, in data set [4] (Ro25-6981 10.0 mg/kg i.p. pretreatment, across all brain regions, pairs showing decrease), the “mean decrease in radioactivity uptake induced by Ro25-6981” value turned out to be 22.3±1.9%. The “mean increase in radioactivity uptake induced by Ro25-6981” value in data set [4] (Ro25-6981 10.0 mg/kg i.p. pretreatment, across all brain regions, pairs showing increase) is recorded as 29.4±4.2%. This molecule also yielded a logD in data set [5] of 2.14 ± 0.02.
